Data set [1] deals with T1, MabA (Mycobacterium tuberculosis, UniProt P9WGT3). The data set is described as follows: MabA LC-MS/MS-based enzymatic assay (reduction of acetoacetyl-CoA into HBCoA). Type of data set: biochemical. To be noted: for IC50: concentration inhibiting 50% of the transformation of acetoacetyl-CoA in HBCoA in the presence of NADPH, LC-MS/MS.
A further data set in a line: LogD octanol/PBS pH 7.4. To be noted: octanol/PBS 1/1, pH 7.4.
The test system of a further data set is plasma proteins. The data set can be described thus: Plasma protein binding by rapid equilibrium dialysis. To be noted: 10% plasma (diluted 1 to 10 in phosphate buffer), pH 7.2. Background: Equilibrium dialysis compares concentrations on both sides of a semipermeable membrane.
The subject of data set [2] is GFP-expressing M. tuberculosis H37Rv. Further details: method as in PMID 32505086. To be noted: Middlebrook 7H9 liquid medium with OADC (contains albumin); 5 days; GFP signal; reported previously; cited from earlier work.
The test system is the same in data set [3]. The data set can be described thus: microbe, parasite or virus in culture. Type of data set: cell-based. To be noted: Mycobacterium tuberculosis.
A further data set in a line: Solubility in PBS pH 7.4. To be noted: PBS pH 7.4, pH 7.4, aqueous buffer, kinetic from dmso stock.
In data set [4] the target is T1, MabA. Type of data set: binding.
Data set [5] has as its system H37Rv. Type of data set: cell-based, M. tuberculosis.
In data set [6] the test system is H37Rv. Type of data set: cell-based, M. tuberculosis. This is another data set of the same source.
Data set [7] can be described thus: Solubility in Sauton medium. Type of data set: physicochemical. To be noted: aqueous buffer.
The subject of data set [8] is H37Rv carrying pUV15-pHGFP. Type of data set: cell-based, M. tuberculosis. To be noted: pH 4.5.
The test system of the next data set is M. tuberculosis H37Rv. Type of data set: cell-based.

Converted amounts (≈) assume the structure as drawn. “Also recorded” adds a separate entry of the source. Where two headings read alike, the source gives them in different places.

T1 sequence (P9WGT3 whole entry, looked up): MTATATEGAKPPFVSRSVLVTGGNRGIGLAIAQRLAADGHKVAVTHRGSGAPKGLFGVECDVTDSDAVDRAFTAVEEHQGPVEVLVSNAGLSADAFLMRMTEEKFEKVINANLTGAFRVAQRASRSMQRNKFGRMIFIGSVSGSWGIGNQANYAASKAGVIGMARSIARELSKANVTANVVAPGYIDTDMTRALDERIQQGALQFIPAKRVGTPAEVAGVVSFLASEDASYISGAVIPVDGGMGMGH

A word on the IC50: it is the concentration needed to halve the response being measured. Usually logD stands for lipophilicity at a set pH, counting ionised and neutral species. Read a low logD as a more hydrophilic compound. By fraction unbound is commonly meant the share of the substance not bound to proteins or other matrix. A high value points to much free substance. In general, solubility refers to the dissolved amount per volume that the medium holds. `O=C(Nc1ccc(I)cc1C(=O)O)c1ccc(Cl)c(Cl)c1` [Compound 1, 2-[(3,4-dichlorobenzoyl)amino]-5-iodo-benzoic acid]: the IC50 at MabA [1] came to 38 ± 6 µM. In the data set “LogD octanol/PBS pH 7.4”, this molecule displayed a logD at 2 h of 3.4. In the data set with plasma proteins, this molecule had an unbound share (fraction unbound) at 4 h, 10 µM of 0.0014. Also, the MIC90 in data set [2] was 300 µM (≈ 131 µg/mL); in data set [3] it was 300 µM (≈ 131 µg/mL); in data set [3] (168 h), 100 µM (≈ 43.6 µg/mL). The same molecule gave a solubility at 24 h in the data set “Solubility in PBS pH 7.4” of more than 200 µM.

Turning to `O=C(Nc1ccc(Br)cc1C(=O)O)c1ccc(Cl)c(Cl)c1` [Compound 2, 5-bromo-2-[(3,4-dichlorobenzoyl)amino]benzoic Acid], at MabA [1], the IC50 was 45 µM. In the data set “LogD octanol/PBS pH 7.4”, this molecule gave a logD at 2 h of 3. Moreover, the MIC90 is 300 µM (≈ 117 µg/mL) in [2] and 100 µM (≈ 38.9 µg/mL) in data set [3] (168 h). In “Solubility in PBS pH 7.4”, this molecule yielded a solubility at 24 h of 181 µM (≈ 70.4 µg/mL).

For the molecule `CN(C(=O)c1ccc(Cl)c(Cl)c1)c1ccc(I)cc1C(=O)O` [Compound 3, 2-[(3,4-dichlorobenzoyl)-methyl-amino]-5-iodo-benzoic Acid], at MabA [1], the IC50 was more than 200 µM.

`O=C(O)c1cc(I)ccc1NS(=O)(=O)c1ccc(Cl)c(Cl)c1` [Compound 4, 2-[(3,4-dichlorophenyl)sulfonylamino]-5-iodo-benzoic Acid]: at MabA [1], the IC50 came out at 40 µM.

As for `O=C(O)c1cc(Br)ccc1C(=O)Nc1ccc(Cl)c(Cl)c1` [Compound 5, 5-bromo-2-[(3,4-dichlorophenyl)carbamoyl]benzoic Acid], the IC50 on MabA [1] was 268 µM.

As for `O=C(O)c1cc(Br)ccc1NC(=S)c1ccc(Cl)c(Cl)c1` [Compound 6, 5-bromo-2-[(3,4-dichlorobenzenecarbothioyl)amino]benzoic Acid], the half-maximal inhibitory concentration (IC50) on MabA [1] came out at 39 µM.

In the case of `O=C(O)c1cc(Br)ccc1-c1nc(-c2ccc(Cl)c(Cl)c2)no1` [Compound 7, 5-bromo-2-[3-(3,4-dichlorophenyl)-1,2,4-oxadiazol-5-yl]benzoic Acid], the IC50 at MabA [1] amounted to 102 µM.

Take `O=C(Nc1ccc(I)cc1CO)c1ccc(Cl)c(Cl)c1` [Compound 8, 3,4-dichloro-N-[2-(hydroxymethyl)-4-iodo-phenyl]benzamide]: the IC50 at MabA [1] is more than 333 µM.

As to `NC(=O)c1cc(I)ccc1NC(=O)c1ccc(Cl)c(Cl)c1` [Compound 9, N-(2-carbamoyl-4-iodo-phenyl)-3,4-dichloro-benzamide], the IC50 on MabA [1] is more than 500 µM.

Regarding `N#Cc1cc(I)ccc1NC(=O)c1ccc(Cl)c(Cl)c1` [Compound 10, 3,4-dichloro-N-(2-cyano-4-iodo-phenyl)benzamide], on MabA [1], the IC50 is more than 1000 µM.

Regarding `O=C(Nc1ccc(I)cc1-c1nnn[nH]1)c1ccc(Cl)c(Cl)c1` [Compound 11, 3,4-dichloro-N-[4-iodo-2-(1H-tetrazol-5-yl)phenyl]benzamide], on MabA [1], the IC50 was determined as 24 µM.

As for `O=C(Nc1ccc(I)cc1C(=O)NS(=O)(=O)C(F)(F)F)c1ccc(Cl)c(Cl)c1` [Compound 12, 3,4-dichloro-N-[4-iodo-2-(trifluoromethylsulfonylcarbamoyl)phenyl]benzamide], the IC50 at MabA [1] stood at 35 µM. Besides, the pH-dependent lipophilicity (logD) at 2 h in the data set “LogD octanol/PBS pH 7.4” stood at 4.1. Moreover, on MabA [4], the “19F- and 1H-NMR signal in the presence of MabA” value is “confirmed the direct binding; also recorded: total disappearance of the signal”. In the data set with plasma proteins, the unbound share (fraction unbound) at 4 h, 10 µM was 0.0002. Further, the MIC90 in data set [3] (168 h) came to 300 µM (≈ 170 µg/mL). Moreover, the concentration in solution in “Solubility in PBS pH 7.4” (solubility at 24 h) was 180 µM (≈ 102 µg/mL).

For the molecule `CS(=O)(=O)NC(=O)c1cc(I)ccc1NC(=O)c1ccc(Cl)c(Cl)c1` [Compound 13, 3,4-dichloro-N-[4-iodo-2-(methylsulfonylcarbamoyl)phenyl]benzamide], the IC50 on MabA [1] turned out to be 28 µM.

Regarding `O=C(Nc1cc(Br)ccc1C(=O)O)c1ccc(Cl)c(Cl)c1` [Compound 14, 4-bromo-2-[(3,4-dichlorobenzoyl)amino]benzoic Acid], on MabA [1], the IC50 was 34 µM.

On to `O=C(Nc1ccccc1C(=O)O)c1ccc(Cl)c(Cl)c1` [Compound 15, 2-[(3,4-dichlorobenzoyl)amino]benzoic Acid], for which, on MabA [1], the IC50 is more than 1000 µM.

For the molecule `O=C(Nc1ccc(C#CC2CC2)cc1C(=O)O)c1ccc(Cl)c(Cl)c1` [Compound 16, 5-(2-cyclopropylethynyl)-2-[(3,4-dichlorobenzoyl)amino]benzoic Acid], on MabA [1], the half-inhibitory concentration (IC50) turned out to be 60 µM. Moreover, the transcriptional response entry in the data set on H37Rv [5] was “downregulation of genes implicated in DNA replication, transcription, translation and growth”. In addition, the “effect of pH on potency” value in the data set on H37Rv [6] is reported as “decreasing pH improved the potency”. This molecule also yielded a solubility in data set [7] of more than 300 µM. Besides, the “effect on intrabacterial pH” value in data set [8] was “dose-dependent decrease in the intrabacterial pH”. The fraction unbound at 4 h, 10 µM in the data set on plasma proteins is 0.0006. This molecule also yielded an MIC90 in [3] (168 h) of 100 µM (≈ 37.4 µg/mL). The “effect on mycolic acids synthesis (TLC)” value with M. tuberculosis H37Rv is on record as “no specific inhibition of mycolic acids”. Besides, the solubility at 24 h in the data set “Solubility in PBS pH 7.4” is more than 200 µM.

Take `C#Cc1ccc(C(=O)O)c(NC(=O)c2ccc(Cl)c(Cl)c2)c1` [Compound 17, 2-[(3,4-dichlorobenzoyl)amino]-4-ethynyl-benzoic Acid]: on MabA [1], the “fold reduction in potency” value turned out to be 2 fold and the IC50 stood at 77 µM.

Regarding `O=C(Nc1cc(-n2cccn2)ccc1C(=O)O)c1ccc(Cl)c(Cl)c1` [Compound 18, 2-[(3,4-dichlorobenzoyl)amino]-4-pyrazol-1-yl-benzoic Acid], on MabA [1], the “improvement of the activity by a factor” value was 1.6 and the IC50 is 23 µM. The same molecule displayed a logD at 2 h in the data set “LogD octanol/PBS pH 7.4” of 2.54. Moreover, the solubility in [7] was more than 300 µM. In the data set on plasma proteins, this molecule had a fraction unbound at 4 h, 10 µM of less than 0.0001. Moreover, the MIC90 in data set [3] (168 h) was 300 µM (≈ 113 µg/mL). The “effect on mycolic acids synthesis (TLC)” value with M. tuberculosis H37Rv is reported as “no specific inhibition of mycolic acids”. The solubility at 24 h in the data set “Solubility in PBS pH 7.4” came to 149 µM (≈ 56.1 µg/mL).

With `O=C(Nc1cc2ccccc2cc1C(=O)O)c1ccc(Cl)c(Cl)c1` [Compound 19, 3-[(3,4-dichlorobenzoyl)amino]naphthalene-2-carboxylic Acid], at MabA [1], the IC50 worked out at 33 µM.

On to `O=C(Nc1nc2ccccc2cc1C(=O)O)c1ccc(Cl)c(Cl)c1` [Compound 20, 2-[(3,4-dichlorobenzoyl)amino]quinoline-3-carboxylic Acid], for which, at MabA [1], the “fold reduction in potency” value is recorded as 2 fold and the IC50 was 76 µM.

In turn, `CCc1cc(C(N)=S)ccn1` [ethionamide, reference compound] came in with an MIC in data set [3] (168 h) of 2 µg/mL (≈ 12 µM).

As to `NNC(=O)c1ccncc1` [isoniazid, reference compound], the MIC in data set [3] (168 h) came out at 0.125 µg/mL (≈ 0.911 µM). In the data set with M. tuberculosis H37Rv, the “effect on mycolic acids synthesis (TLC)” value is given as “decrease in mycolic acids synthesis”.

In turn, `CO[C@H]1/C=C/O[C@@]2(C)Oc3c(C)c(O)c4c(O)c(c(/C=N/N5CCN(C)CC5)c(O)c4c3C2=O)NC(=O)/C(C)=C\C=C\[C@H](C)[C@H](O)[C@@H](C)[C@@H](O)[C@@H](C)[C@H](OC(C)=O)[C@@H]1C` [rifampicine, reference compound] showed an MIC in data set [3] (168 h) of 0.004 µg/mL (≈ 0.00486 µM).

These data come from publication PMC10057394, “Exploring the Antitubercular Activity of Anthranilic Acid Derivatives: From MabA (FabG1) Inhibition to Intrabacterial Acidification” (Pharmaceuticals, 2023).
